# Source: PMC3056768, “Conjugation to the Cell-Penetrating Peptide TAT Potentiates the Photodynamic Effect of Carboxytetramethylrhodamine” (PLoS ONE, 2011)
# “Also recorded” adds a separate entry of the source.
# Key:
# HeLa cells [1] = test: Photocytotoxicity of endocytosed peptide after light irradiation (SYTOX Blue staining, membrane blebbing); format: cell-based
# Description: (§1) HeLa (human cervical adenocarcinoma), COS-7 (SV40 transformed African green monkey kidney fibroblast-like cell line) were obtained from ATCC. COLO 316 (human ovarian carcinoma) were obtained from Robert Burghardt (Department of Veterinary Integrative Biosciences, Texas A&M University). Cells were cultured in DMEM supplemented with 10% fetal bovine serum (FBS) and maintained at 37°C in a humidified environment with 5% CO2. Cells were plated in 8-well dishes so that the cells were 70% confluent after 24 h, washed 3 times with L-15 media, incubated with 3 to 10 µM peptides at 37°C for 1 h, washed 3 times with L-15, and imaged. Alternatively, cells were incubated in L-15 at 4°C to inhibit the endocytic uptake of peptides. In this case, cells were imaged with the peptide still present in solution and the low temperature was maintained for the entire duration of imaging. For photosensitization, cells were exposed to light (λex = 560±20 nm) for the indicated time points. Plasma membrane disruption was detected by addition of the cell-impermeable DNA stain SYTOX Blue (5 µM) during or after photosensitization.
# (§2) Ten to twenty images were acquired for each experiment.
# Irradiances at the specimen were 100 mW/cm^2 when no neutral density filter and no objective were present in the light path (and, for instance 5 mW/cm^2 when ND4 was inserted). Irradiances were measured using a monochromic photometer (model 840-c, Newport, Irvine, CA). Irradiation area has a diameter of 1.3 cm without objective but the light beam is focused into an area of 3×10^−3 cm^2 by the 100× objective. Irradiances can therefore be approximated to be at […] with ND4 or ND1, respectively. Irradiances provided in the figure legends are based on these calculations. To confirm that the irradiances measured on the microscope were accurate, experiments were also reproduced, when possible, using light illumination with a collimated light source from Oriel (Stratford, CT) equipped with a 500 W Hg lamp. Selective irradiation at 560 nm was performed using an analytical line filter (Oriel, 9.4 nm bandwidth). In this case, irradiances of the light beam (diameter of 2.5 cm) could be measured more precisely using the monochromic photometer.
# HeLa cells [2] = test: Photo-induced endosomal release (fluorescence imaging); format: cell-based, human
# Description: as §1, §2
# The effect of light irradiation on cells that have endocytosed TMR-TAT was first investigated. HeLa cells were incubated in the presence of TMR-TAT (3 µM) for 1 hour at 37°C. After washing the cells, the sample was placed on a microscope and the cellular distribution of the peptide was assessed by fluorescence imaging. […] Within seconds, the content of many endosomes was released into the cell and the peptides were distributed throughout the cell. The peptide also accumulated at the nucleoli, a known effect of TAT [7]. […] The viability of non-irradiated cells was, in contrast, not affected by TMR-TAT (Fig. 2B); we found the cytotoxicity of the peptide to be negligible in the absence of light at concentrations up to 25 µM (supporting information Fig. S1).
# HeLa cells [3] = test: Toxicity in the absence of light (SYTOX green / DAPI); format: cell-based, human; details: concentrations up to 25 µM, 1 h in L-15 at 37°C, washed, additional 4 h, average of 3 experiments
# Description: Supplementary file pone.0017732.s001.tif: Figure S1 Toxicity of TMR-TAT toward HeLa cells in the absence of light. TMR-TAT was incubated at the concentration indicated with cells for 1 hour in L-15 at 37°C. Cells were washed with fresh L-15 and incubated for an additional 4 h. Cells were then treated with L-15 containing DAPI and SYTOX® green. DAPI stains the nucleus of all cells while SYTOX® green only stains the nucleus of dead cells. Cells were imaged by fluorescence microscopy using the DAPI and FITC filters to detect DAPI and SYTOX® green, respectively. For each experiments, five representative images were acquired using the 20× objective and the percentage of dead cells were calculated from the ratio of cells stained by SYTOX® green divided by the number of cells stained by DAPI. The reported data is the average of 3 experiments (3×5 images, ≥1000 cells/experiments) and the error bar represents the standard deviation. (TIF) Click here for additional data file.
# HeLa cells [4] = test: Photo-induced activity as a function of time in the endocytic pathway (endocytic degradation); format: cell-based, human; details: 3 µM 1 h, washed, read-out of endocytic degradation
# Description: One would expect that TMR-TAT would accumulate within late endosomes and lysosomes over time and that the TAT moiety might be degraded by proteases present in these organelles. If TAT is required for the lytic activity of TMR-TAT, degradation of the peptide should therefore abolish the activity of the compound. On the other hand, riTAT should be resistant to proteolysis and its lytic activity should not be dependent on the incubation time. HeLa cells were treated with TMR-TAT or TMR-riTAT for 1 hour to allow for endocytosis. The cells were then washed and incubated for an additional 1, 4, or 8 hours in L-15 media to allow for the accumulation of the endocytosed peptides into late endosomes and lysosomes. The cells were then observed under the microscope and treated with light as described in the previous paragraph.
# Figure 3 Degradation of TMR-TAT in endocytic organelles abolishes photo-induced endosomal release and photocytotoxicity. HeLa cells were incubated with TMR-TAT or TMR-riTAT (3 µM) for 1 h, washed, and incubated at 37°C for an additional 1, 4 or 8 hours. […] The histogram represents the average percentage of cells stained by SYTOX® Blue after peptide and light treatment (the number of cells examined is at least 3000) and the error bars represent the standard deviation (experiments were reproduced at least 3 times).
# COS-7 cells = test: Photosensitization of endocytosed peptide; format: cell-based, African green monkey; details: COS-7, 3 µM for 1 h, washed, 560 nm
# Description: as §1, with “In this case, cells were imaged with the peptide still present in solution and the low temperature was maintained for the entire duration of imaging. For photosensitization, cells were exposed to light (λex = 560±20 nm) for the indicated time points.” left out
# TMR-TAT induces cell-death upon light irradiation in HeLa or COS-7 cells. […] Cells were observed using a 10× objective using bright field and fluorescence imaging (CFP filter to detect SYTOX® Blue). […] Cells were observed using a 100× objective using bright field and fluorescence imaging (RFP filter to detect TMR-TAT, pseudocolored red, and CFP filter to detect SYTOX® Blue, pseudo colored blue). […]
# [5] = incubation 1 h 37°C (3 µM; TMR-K9 10 µM), washed, irradiated at 560±20 nm
smiles,measurement,setting,value
CN(C)c1ccc2c(c1)Oc1cc(N(C)C)ccc1C21OC(=O)c2cc(C(=O)NCC(=O)N[C@@H](CCCNC(=N)N)C(=O)N[C@@H](CCCCN)C(=O)N[C@@H](CCCCN)C(=O)N[C@@H](CCCNC(=N)N)C(=O)N[C@@H](CCCNC(=N)N)C(=O)N[C@@H](CCC(N)=O)C(=O)N[C@@H](CCCNC(=N)N)C(=O)N[C@@H](CCCNC(=N)N)C(=O)N[C@@H](CCCNC(=N)N)C(=O)NCC(N)=O)ccc21 [TMR-TAT],"cell destruction, percentage of irradiated cells (SYTOX Blue staining)","HeLa cells [1]; endocytosed peptide, 2 sec irradiation at 560 nm, radiant exposure approx. 40 J/cm^2, at least 3000 cells, reproduced at least 3 times",more than 95%
same,photocytotoxicity / cell death after irradiation at 560 nm,HeLa cells [1]; [5],rapid necrosis; also recorded: plasma membrane damage and cell death
same,endosomal release on exposure to light of wavelengths not absorbed by TMR,HeLa cells [2]; e.g. 436 or 470 nm,No endosomal release
same,photo-induced endosomal release (photoendosomolytic activity) at 560 nm,HeLa cells [2]; [5],release of the fluorescent peptides from endosomes into the cytosol; also recorded: escape of TMR-TAT from endocytic organelles into the cytosol
same,cytotoxicity in the absence of light,HeLa cells [3],negligible
same,photo-induced endosomal release and cell-death after additional incubation,HeLa cells [4]; additional 1 hour at 37°C in L-15 before irradiation,observed
same,photo-induced endosomal release and cell-death after additional incubation,HeLa cells [4]; additional 4 h at 37°C in L-15 before irradiation,reduced
same,photo-induced endosomal release and cell-death after additional incubation,HeLa cells [4]; additional 8 h at 37°C in L-15 before irradiation,completely abolished
same,"photo-induced activities (endosomal release, blebbing, SYTOX Blue staining)",COS-7 cells,"could be reproduced; also recorded: membrane blebs are formed on the cell surface, and the nuclei of cells are stained by SYTOX® Blue"
